Read-outs that look alike come from different tables or passages of the source.
Tested on: P. aeruginosa ATCC 27853
Assay: Broth microdilution MIC, P. aeruginosa ATCC 27853
Type: cell-based
Conditions: Pseudomonas aeruginosa
Description: To determine the ability of test compounds to potentiate the inhibition of the growth of bacterial strains, classic cell based broth microdilution minimum inhibitory concentration (MIC) assays were employed. MIC assays are performed according to CLSI methods except where otherwise noted (CLSI, 2011 and CLSI, 2009). The reference type strain E. coli ATCC 25922, the wild-type parent strain E. coli AG100, the hyper-permeable E. coli 901C and E. coli D22 and the E. coli AG100A strain lacking the acrAB efflux pump encoding genes were used to determine the ability of the PBP inhibitors to penetrate the outer membrane of gram-negative bacteria and inhibit bacterial growth. […] The P. aeruginosa PAO1, P. aeruginosa ATCC 27853 and A. baumannii ATCC 19606, along with the hyper-permeable P. aeruginosa ATCC 35151 and an engineered efflux pump-compromised strain of P. aeruginosa (ΔmexAB-oprM) were used to determine the ability of PBP inhibitors to penetrate the outer membrane of P. aeruginosa and A. baumannii and assess antibacterial activity against these important gram-negative organisms.
Briefly, cryo-preserved bacterial cultures of challenge strains are streaked for isolation on appropriate agar medium, in this case Mueller Hinton II agar. Following incubation to allow growth of the colonies, plates are sealed with parafilm and stored refrigerated for up to two weeks. For preparation of assay inoculum and to ensure low variability, at least 5 colonies are picked from the agar plates with an inoculating loop and aseptically transferred to a culture tube containing 3 mL of Mueller-Hinton Broth (supplemented with divalent cations to required levels based on Manufacturers' certification). The broth culture is grown for 3-5 hours at 37° C. with shaking at 200 rpm. Meanwhile, 2-fold serial dilutions of test compounds are conducted in a 96 well plate with a final volume of 75 μL per well at 2-fold the final desired concentration. After the dilution plates are set up the growing cultures are then diluted in a cuvette containing MH II broth and the optical density is measured at 600 nm. The Inoculum is diluted such that 75 μL of this culture in Mueller-Hinton Broth results in a starting bacterial concentration of 5×10^5 CFU/mL when added to the dilution plates. The plates are incubated for 16-20 hours at 37° C. The MIC values are read visually as the lowest concentration well with no bacterial growth.

[1] = ATCC27853, P. aeruginosa ATCC 27853, broth microdilution, read-out: MIC P. aeruginosa ATCC 27853

For NCCCN1CCN(C(=O)NC(C(=O)N[C@H]2Cc3cccc(C(=O)O)c3OB2O)c2ccc(O)c(O)c2Cl)C(=O)C1=O (stereo partly drawn) [Example 233, (3R)-3-(2-(4-(3-aminopropyl)-2,3-dioxopiperazine-1-carboxamido)-2-(2-chloro-3,4-dihydroxyphenyl)acetamido)-2-hydroxy-3,4-dihydro-2H-benzo[e][1,2]oxaborinine-8-carboxylic acid], which MIC [1] is on record?
Its MIC is 2 to 4 µg/mL.

CCN1C[C@H](CO)N(C(=O)NC(C(=O)N[C@H]2Cc3cccc(C(=O)O)c3OB2O)c2ncc(O)cc2F)C(=O)C1=O (stereo partly drawn) [Example 234, (3R)-3-(2-((R)-4-ethyl-6-(hydroxymethyl)-2,3-dioxopiperazine-1-carboxamido)-2-(3-fluoro-5-hydroxypyridin-2-yl)acetamido)-2-hydroxy-3,4-dihydro-2H-benzo[e][1,2]oxaborinine-8-carboxylic acid] was tested. Which MIC (ATCC27853, read-out: MIC P. aeruginosa ATCC 27853) did it give?
The MIC was over 128 µg/mL.

How did the MIC [1] turn out when CCNC(=O)NCCN1CCN(C(=O)NC(C(=O)N[C@H]2Cc3cccc(C(=O)O)c3OB2O)c2ccc(O)c(O)c2Cl)C(=O)C1=O (stereo partly drawn) [Example 235, (3R)-3-(2-(2-chloro-3,4-dihydroxyphenyl)-2-(4-(2-(3-ethylureido)ethyl)-2,3-dioxopiperazine-1-carboxamido)acetamido)-2-hydroxy-3,4-dihydro-2H-benzo[e][1,2]oxaborinine-8-carboxylic acid] was run?
Its MIC is 8 to 16 µg/mL.

Which MIC [1] does the source give for NCCCN1CCN(C(=O)N[C@@H](C(=O)N[C@H]2Cc3ccc(F)c(C(=O)O)c3OB2O)c2ccc(O)c(O)c2Cl)C(=O)C1=O [Example 236, (R)-3-((R)-2-(4-(3-aminopropyl)-2,3-dioxopiperazine-1-carboxamido)-2-(2-chloro-3,4-dihydroxyphenyl)acetamido)-7-fluoro-2-hydroxy-3,4-dihydro-2H-benzo[e][1,2]oxaborinine-8-carboxylic acid] here?
Its MIC is 0.5 to 1 µg/mL.

CCN1C[C@H](CO)N(C(=O)NC(C(=O)N[C@H]2Cc3ccc(F)c(C(=O)O)c3OB2O)c2ccc(O)c(O)c2Cl)C(=O)C1=O (stereo partly drawn) [Example 237, (3R)-3-(2-(2-chloro-3,4-dihydroxyphenyl)-2-((R)-4-ethyl-6-(hydroxymethyl)-2,3-dioxopiperazine-1-carboxamido)acetamido)-7-fluoro-2-hydroxy-3,4-dihydro-2H-benzo[e][1,2]oxaborinine-8-carboxylic acid] was tested. Which MIC [1] did it give?
The MIC was 0.5 to 1 µg/mL.

How did the MIC [1] turn out when CCN1C[C@H](CCN)N(C(=O)NC(C(=O)N[C@H]2Cc3ccc(F)c(C(=O)O)c3OB2O)c2ccc(O)c(O)c2Cl)C(=O)C1=O (stereo partly drawn) [Example 238, (3R)-3-(2-((S)-6-(2-aminoethyl)-4-ethyl-2,3-dioxopiperazine-1-carboxamido)-2-(2-chloro-3,4-dihydroxyphenyl)acetamido)-7-fluoro-2-hydroxy-3,4-dihydro-2H-benzo[e][1,2]oxaborinine-8-carboxylic acid] was run?
Its MIC is 2 to 4 µg/mL.

How did the MIC [1] turn out when CNCCN1CCN(C(=O)NC(C(=O)N[C@H]2Cc3cccc(C(=O)O)c3OB2O)c2ccc(O)c(O)c2Cl)C(=O)C1=O (stereo partly drawn) [Example 239, (3R)-3-(2-(2-chloro-3,4-dihydroxyphenyl)-2-(4-(2-(methylamino)ethyl)-2,3-dioxopiperazine-1-carboxamido)acetamido)-2-hydroxy-3,4-dihydro-2H-benzo[e][1,2]oxaborinine-8-carboxylic acid] was run?
Its MIC is 8 to 16 µg/mL.
